“Also recorded” adds a separate entry of the source. Marks after values point to notes of the source that are not given here.
Columns and labels:
[1] = Body weights of SG-fed animals; type: in vivo, CD-1 mice; conditions: SG-fed vs control, over the study
Procedure: (§1) Five-month old male CD-1 mice (30.1-35.7 g, 7.5 cm - 8.8 cm) were purchased from Charles River (Wilmington, MA). Adult mice were chosen to mimic the mean age of onset of ALS-PDC (Kurland, 1988; Kurland et al., 1994). Thirty mice for the SG study were randomly divided into 2 groups (14 control and 16 experimental animals). All animals were housed singly in a virus-free barrier facility in a room maintained at 22°C under a 12 hour light/dark cycle. The mice were provided ad libitum access to food and water.
(§2) The synthetic SG was mixed with finely ground Purina Chow mouse pellets (Mouse Diet™, Purina) to create the experimental pellets with a SG content of 1000 µg per pellet. Dry materials were blended with a sterile silicon spatula. For every 5 g of standard feed, 2.5 mL of doubly-distilled water (dd)H2O was added and the dough was kneaded and round up into pellets. A single sterol glucoside containing pellet was placed in the feeding tray each morning before the addition of regular mouse chow (ad libitum). All experimental pellets were entirely consumed by the mice each day. Control mice were fed standard mouse chow pellets of identical weight with no additives. SG feeding was conducted daily for 15 weeks and mice were behaviorally monitored until sacrifice at 35 weeks (time point 1) or 52 weeks (time point 2).

CD-1 mice [2] = assay: Rotarod test; type: in vivo; conditions: SG-fed vs control, duration of the study
Procedure: as §1
The synthetic SG was mixed with finely ground Purina Chow mouse pellets (Mouse Diet™, Purina) to create the experimental pellets with a SG content of 1000 µg per pellet. Dry materials were blended with a sterile silicon spatula. […] SG feeding was conducted daily for 15 weeks and mice were behaviorally monitored until sacrifice at 35 weeks (time point 1) or 52 weeks (time point 2).
Rotorod: The rotarod was used to evaluate motor function, coordination and balance (Jones and Roberts, 1968; Sango et al., 1995; Gerlai et al., 1996a; Sango et al., 1996; Chapillon et al., 1998; Carter et al., 1999; Crawley, 1999; Gerlai and Roder, 1996). The time that a mouse could remain walking on a horizontal (Norflus et al., 1998), rotating axle (3.6 cm diameter; 16 rpm) elevated above an area of padding without falling, clenching on, or jumping off the axle was measured (Crawley, 1999), see FIGURE 15. […]

CD-1 mice [3] = assay: Leg extension reflex test; type: in vivo
Procedure: as §1
as §2, with “All experimental pellets were entirely consumed by the mice each day. Control mice were fed standard mouse chow pellets of identical weight with no additives.” left out
Leg extension reflex test: The leg extension reflex test was used as a measure of motor neuron dysfunction (Barneoud and Curet, 1999). […] The leg extension reflex was measured three times per week in each animal. […]

[4] = system: Cholinergic motor neurons in the spinal cord; assay: Choline acetyl transferase immunofluorescence; type: in vivo, CD-1 mice; conditions: SG-fed vs control; for Cholinergic neurons: ventral horn of lumbar spinal cord
Procedure: as §2
(§3) Tissue-mounted slides were processed for fluorescence microscopy as follows: Sections were rinsed in coplin jars for 45 minutes at room temperature (RT) in three changes of PBS. Sections were then incubated at RT for 30 minutes in a blocking permeabilization solution made of 5% normal goat serum (NGS), 5% normal rabbit serum (NRS) or 5% BlokHen II (Aves Labs, Inc., Tigard, OR), 0.05% Triton X-100 and PBS. Subsequently, the blocking solution was tipped off and the slides were rinsed in PBS for 2 minutes. […]

Phosphorylated Junser73 = assay: Phosphorylated Jun ser73 immunofluorescence; type: in vivo, CD-1 mice; conditions: for Anti-pJun: SG-fed vs control
Procedure: as §2, §3

[5] = system: Ionized calcium-binding adaptor molecule-1; assay: IBA-1 immunofluorescence (microglia proliferation); type: in vivo, CD-1 mice; conditions: SG-fed group over time, 35 to 52 wk
Procedure: as §2, §3

[6] = system: Dopaminergic cells Tyrosine Hydroxylase; assay: Tyrosine hydroxylase immunohistochemistry; type: in vivo, CD-1 mice; conditions: SG-fed animals, either time-point
Procedure: as §2, §3

[7] = system: Phosphorylated tau aggregates; assay: Tau immunohistochemistry; type: in vivo, CD-1 mice; parameters: key to Phosphorylated tau aggregates: - = not present; + = present; conditions: for Phosphorylated tau aggregates: SG-fed
Procedure: as §2, §3

Compound: CCC(C=CC(C)C1CCC2C3CC=C4CC(OC5OC(CO)C(O)C(O)C5O)CCC4(C)C3CCC12C)C(C)C (centres unmarked) [SG]
- Body weights [1]: not significantly different; also recorded: normal weight gain
- Rotarod performance (CD-1 mice [2]): trend of diminished performance on the rotarod but numbers did not reach statistical significance; also recorded: decrease in the time without fall
- Leg extension reflex test performance (score) (CD-1 mice [3]; SG-fed animals, soon after 35 weeks / during the study): steady decline in performance; also recorded: decreased
- Leg extension (CD-1 mice [3]; SG-fed vs control, time-point 2, 52 wk): Leg extension* (*p<0.05)
- fewer cholinergic neurons ([4]; 35 weeks): 18%
- fewer cholinergic neurons ([4]; 52 weeks): 32%
- Cholinergic neurons ([4]; time-point 1, 35 wk): Cholinergic neurons (-18%)
- Cholinergic neurons ([4]; time-point 2, 52 wk): Cholinergic neurons (-32%)
- Anti-pJun immunoreactive cells (Phosphorylated Junser73; SG-fed group over time, 35 to 52 wk): Anti-pJun immunoreactive cells (SG-fed group over time) (ns)
- Anti-pJun (Phosphorylated Junser73; time-point 1, 35 wk): Anti-pJun: +199%*
- Anti-pJun (Phosphorylated Junser73; time-point 2, 52 wk): Anti-pJun (ns)
- Anti-IBA-1 immunoreactive cells [5]: Anti-IBA-1 immunoreactive cells (SG-fed group over time) (ns)
- decrease in TH optical density, striata [6]: not significant
- Phosphorylated tau aggregates, animals affected ([7]; SG-fed group, time-point 2, 52 wk): 2/8
- Phosphorylated Tau aggregates ([7]; SG-fed mice, none in non-treated mice): induced accumulation of phosphorylated tau; also recorded: observed
- Phosphorylated tau aggregates ([7]; time-point 1, 35 wk): -
- Phosphorylated tau aggregates ([7]; time-point 2, 52 wk): +

Reference: EP2181589A1, “Neurotoxic sterol glycosides” (Shaw, Christopher Ariel, priority 2008, dated 2010)
